The text below walks through data of patent publication US20250041439A1, “ANTIBODY-DRUG CONJUGATES” (SPIREA LIMITED, priority 2021, published 2025).

By IC50 is commonly meant the concentration at which inhibition is half-maximal. The T/C is the result in the treated group divided by that in the control group, in per cent.

Like-named read-outs stand apart in the source and are kept apart here. Non-standard residues stand in square brackets, D forms with d. Residues, ends and D or L forms follow the SMILES beside them. *: point of attachment. Dolaproine = CO[C@@H]([C@@H]1CCCN1)[C@@H](C)C(=O)O; Dil = CC[C@H](C)[C@H](NC)[C@@H](CC(=O)O)OC; X1 = C[C@@H](N*)[C@@H](O)c1ccccc1; NMeV = CN[C@H](C(=O)O)C(C)C

The subject of test [1] is SK-BR-3 cells (HER2 High, human breast adenocarcinoma). Briefly: CellTiter-Glo luminescence viability assay with SN-38 ADCs. In kind it is cell-based. Particulars: n = 3, read-out: SK-BR-3 IC50 Mean (±St. Dev.). Here is the method:
The plates were then mixed for 3 minutes at 300 rpm to assist cell lysis and incubated for a further 20 minutes at room temperature to stabilise the luminescence signal.
For orientation: Cellular ATP, detected with luciferase, serves as a proxy for viable cell number.

The subject of test [2] is NCI-N87 human gastric cancer CDX model. The class given is in vivo. Particulars: 3 mg/kg IV single dose, PG-D42. Here is the method:
The objective of this study was to evaluate the in vivo anti-tumour efficacy of the MMAE ADC of Example 3 in the subcutaneous NCI-N87 human gastric cancer CDX model in female BALB/c Nude mice.
• Species: Mus musculus • Strain: BALB/c Nude • Age: 6-8 weeks • Sex: female • Body weight: 18-22 g
The NCI-N87 tumor cells (ATCC, Manassas, VA, cat #CRL-5822) were maintained in vitro as a monolayer culture in RPMI-1640 medium supplemented with 10% fetal bovine serum, 1% Antibiotic-Antimycotic, at 37° C. in an atmosphere of 5% CO2 in air. The tumour cells were routinely subcultured twice weekly by trypsin-EDTA treatment. The cells growing in an exponential growth phase were harvested and counted for tumour inoculation.
Each mouse for efficacy study was inoculated subcutaneously at the right flank with NCI-N87 tumour cells (10×10^6) in 0.2 mL of PBS supplemented with Matrigel (1:1) for tumour development. Treatments were started on day 6 after tumour inoculation when the average tumour size reached approximately 198 mm^3. […]
All the procedures related to animal handling, care and the treatment in the study were performed according to the guidelines approved by the Institutional Animal Care and Use Committee (IACUC) of the CRO following the guidance of the Association for Assessment and Accreditation of Laboratory Animal Care (AAALAC). At the time of routine monitoring, the animals were daily checked for any effects of tumour growth and treatments on normal behaviour such as mobility, food and water consumption (by looking only), body weight gain/loss (body weights were measured twice weekly), eye/hair matting and any other abnormal effect as stated in the protocol. Death and observed clinical signs were recorded on the basis of the numbers of animals within each subset.
The major endpoint was to see if the tumour growth could be delayed or mice could be cured. Tumour size was measured twice weekly in two dimensions using a calliper, and the volume was expressed in mm^3 using the formula: V=0.5a×b^2 where a and b are the long and short diameters of the tumour, respectively. […]

For test [3], the system named is JIMT-1 (Her2 Low, human breast carcinoma). Briefly: CellTiter-Glo luminescence viability assay with MMAE ADC. The class given is cell-based. The note with it: JIMT-1 cells, 96 hours, n = 3; read-out: IC50 (anti-proliferative effect). The protocol: (§1) The CellTiter-Glo© luminescence viability assay was used to measure the inhibitory effect of the MMAE ADC prepared in Example 3 on cell growth.
(§2) Her2^High SK-BR-3 (human breast adenocarcinoma, ATCC® HTB-30, Manassas, VA, United States) were cultured in McCoy's 5A medium supplemented with 200 U/mL penicillin, 200 μg/mL streptomycin and 20% heat-inactivated fetal bovine serum. Her2^Low JIMT-1 (human breast carcinoma, ACC589, DSMZ, Braunschweig, Germany) were cultured in DMEM GlutaMax® medium supplemented with 200 U/mL penicillin, 200 μg/mL streptomycin and 10% heat-inactivated fetal bovine serum. Her2^Negative NCI-H520 (human lung squamous cell carcinoma, ATCC®-HTB-182) were cultured in RPMI medium supplemented with 200 U/mL penicillin, 200 μg/mL streptomycin and 10% heat-inactivated fetal bovine serum.
(§3) SK-BR-3, JIMT-1 and NCI-H520 cells were seeded in 96-well plates at a density of 5×10^3, 2×10^3 and 2.5×10^3 cells in 100 μL growth medium, respectively, and incubated for 24 hours at 37° C./5% CO2.
(§4) After 96 hours in the presence of ADCs or controls, viability was detected using the CellTiter-Glo® luminescence assay. Assay plates were equilibrated at room temperature for 20 minutes before addition of 100 μL CellTiter-Glo® reagent per well. The plates were then mixed for 3 minutes at 300 rpm to assist cell lysis and incubated for a further 20 minutes at room temperature to stabilise the luminescence signal. Luminescence was recorded using a SpectraMax i3x plate reader with a default integration time of 0.5 s/well.

The test system of test [4] is NCI-H520 (Her2 Negative, human lung squamous cell carcinoma). The test is described as above. The class given is cell-based. The note with it: NCI-H520 cells, 96 hours, n = 3; read-out: IC50 (anti-proliferative effect). The protocol:
as §1, §2, §3, §4

Test [5] concerns SK-BR-3 (Her2 High, human breast adenocarcinoma). The test is described as above. The note with it: SK-BR-3 cells, 96 hours, n = 3; read-out: IC50 (anti-proliferative effect). In kind it is cell-based. Here is the method:
as §1, §2, §3, §4

Turning to `CCc1c2c(nc3ccc(O)cc13)-c1cc3c(c(=O)n1C2)COC(=O)[C@]3(O)CC` [SN-38], the half-maximal inhibitory concentration (IC50) in test [1] (9 h exposure (limited), then further 96 hours) was 5780 ± 2010 pM; in test [1] (96 h exposure (continuous)) it was 1170 ± 90 pM.

Consider T-DM1, for which, in test [2], the T/C is 29.37%, the TGI turned out to be 78.58% and the mean tumour volume amounted to 574 mm^3.

For the molecule `CC[C@H](C)[C@@H]([C@@H](CC(=O)N1CCC[C@H]1[C@H](OC)[C@@H](C)C(=O)N[C@H](C)[C@@H](O)c1ccccc1)OC)N(C)C(=O)[C@@H](NC(=O)[C@@H](NC)C(C)C)C(C)C` [MMAE, monomethyl auristatin E] (H-[NMeV]V[Dil][Dolaproine]-X1), the IC50 in test [3] came to 126 ± 53 pM; in test [4] it was 334 ± 114 pM; in test [5] it was 284 ± 138 pM.
